The text below walks through data of patent publication US20260201008A1, “SECRETIN-DERIVED GLP1R SELECTIVE AGONISTS” (GUBRA A/S, priority 2023, published 2026).

In series [1] the target is GLP1R (Homo sapiens, UniProt P43220). Description: hGLP1R potency, cAMP accumulation in CHO-K1 cells stably overexpressing hGLP1R. Type of series: cell-based. Also on record: host or cells: CHO-K1. The settings on record: for Selectivity: SCTR EC50/GLP1R EC50 ratio. Summed up: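 Potency reflects cAMP accumulation measured by time-resolved fluorescence energy transfer after a 30 min room-temperature stimulation in IBMX-containing (0.5 mM) DPBS with casein. Purified peptides were tested in duplicate over eleven threefold dilutions, and EC50 was obtained from sigmoid concentration-response fitting.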
GLP1R, sequence (P43220 24-463): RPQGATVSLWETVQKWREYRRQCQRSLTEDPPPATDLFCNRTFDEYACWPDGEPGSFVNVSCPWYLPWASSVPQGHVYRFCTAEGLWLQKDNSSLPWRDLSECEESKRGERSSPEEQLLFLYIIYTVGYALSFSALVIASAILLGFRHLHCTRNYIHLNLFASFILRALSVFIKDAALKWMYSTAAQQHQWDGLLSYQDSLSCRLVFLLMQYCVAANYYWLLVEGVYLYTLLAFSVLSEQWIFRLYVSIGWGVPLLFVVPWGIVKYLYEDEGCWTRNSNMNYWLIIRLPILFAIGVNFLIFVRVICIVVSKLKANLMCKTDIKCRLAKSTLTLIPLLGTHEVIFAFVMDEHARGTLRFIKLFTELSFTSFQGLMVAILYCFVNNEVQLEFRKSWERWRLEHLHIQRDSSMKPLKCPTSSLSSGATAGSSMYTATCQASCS

Series [2] deals with SCTR (Homo sapiens, UniProt P47872). Kind of series: hSCTR potency, cAMP accumulation in CHO-K1 cells stably overexpressing hSCTR. Format: cell-based. On the set-up: alternatively Euroscreen ES-712-AF; FAST-0161L; host or cells: CHO-K1. In a few lines:
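Potency reflects cAMP accumulation after 30 min agonist exposure at room temperature in hSCTR-expressing CHO-K1 cells, with 0.5 mM IBMX present to block phosphodiesterase. EC50 was derived by nonlinear regression.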
In general terms: cAMP levels reflect the balance of adenylyl cyclase and phosphodiesterase activity.

Series [3] can be described thus: Fibril formation of crude library peptides (Thioflavin T). Format: physicochemical. Also on record: key: average ThT fluorescence emission at 480 nm (ex 450 nm), raw units. The settings on record: Physical stability of peptides. Summed up:
(§1)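 Values reflect mean ThT emission (ex 450, em 480 nm) over 72 h at 40° C, read every 10 min after 5 min shaking at 700 rpm, plus a single initial absorbance at 600 nm for turbidity. Peptides were at 267 μM, pH 4.0 acetate or pH 7.0 phosphate (50 mM), with 4 μM ThT.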

Series [4] in a line: Turbidity of crude library peptides (absorbance at 600 nm). Format: physicochemical. The note with it: Physical stability of peptides. Summed up:
as §1

The mark [5] stands for this setting: cAMP accumulation, CHO-K1 cells overexpressing hGLP1R, read-out: pEC50 hGLPR1 (converted).
Where [6] appears, read: cAMP accumulation, CHO-K1 cells overexpressing hSCTR, read-out: pEC50 hSCTR (converted).

The structures appear in SMILES notation. Read-outs that look alike come from different tables or passages of the source. Numbered stars: 1 amine (or outer) side, 2 acyl side, 3 side chain; on linkers, the order of the positions; unused ones are H or OH. Square brackets hold non-standard residues; d marks the D form. Side chains are listed from the residue outwards. Peptide text beside a SMILES is read from it. * marks the point of attachment. C20 diacid = O=C(O)CCCCCCCCCCCCCCCCCCC(=O)*; γGlu = O=C(O)[C@H](CCC(=O)[*:2])N[*:1]; AEEA = NCCOCCOCC(=O)O; Aib = CC(C)(N)C(=O)O

SCTR, sequence (P47872 23-440): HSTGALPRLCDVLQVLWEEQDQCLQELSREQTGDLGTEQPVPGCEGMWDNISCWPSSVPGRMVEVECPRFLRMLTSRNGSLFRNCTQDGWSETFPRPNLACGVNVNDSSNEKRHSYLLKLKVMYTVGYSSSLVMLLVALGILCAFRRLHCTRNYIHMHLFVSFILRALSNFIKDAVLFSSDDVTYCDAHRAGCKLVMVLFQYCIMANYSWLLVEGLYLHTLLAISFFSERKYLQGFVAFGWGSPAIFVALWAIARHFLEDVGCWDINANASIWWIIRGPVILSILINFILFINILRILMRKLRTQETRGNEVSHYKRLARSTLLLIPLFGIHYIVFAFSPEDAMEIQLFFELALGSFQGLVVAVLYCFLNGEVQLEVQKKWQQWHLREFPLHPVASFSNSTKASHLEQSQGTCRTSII

On to `CC(C)C[C@H](NC(=O)[C@H](Cc1ccccc1)NC(=O)[C@H](CCCNC(=N)N)NC(=O)[C@H](CCC(N)=O)NC(=O)[C@H](CCC(N)=O)NC(=O)[C@H](C)NC(=O)[C@H](C)NC(=O)[C@@H](NC(=O)[C@H](CCC(=O)O)NC(=O)[C@H](CCCCNC(=O)COCCOCCNC(=O)COCCOCCNC(=O)CC[C@H](NC(=O)CCCCCCCCCCCCCCCCCCC(=O)O)C(=O)O)NC(=O)[C@H](CC(C)C)NC(=O)[C@H](Cc1ccc(O)cc1)NC(=O)[C@H](CO)NC(=O)[C@@H](NC(=O)[C@H](CC(=O)O)NC(=O)[C@H](CO)NC(=O)[C@@H](NC(=O)[C@H](Cc1ccccc1)NC(=O)[C@@H](NC(=O)CNC(=O)[C@H](CCC(=O)O)NC(=O)C(C)(C)NC(=O)[C@@H](N)Cc1c[nH]cn1)[C@@H](C)O)[C@@H](C)O)C(C)C)[C@@H](C)O)C(=O)N[C@@H](CCC(=O)O)C(=O)N[C@@H](Cc1c[nH]cn1)C(=O)N[C@@H](CC(C)C)C(=O)N[C@H](C(N)=O)C(C)C` [compound 58] (H-H[Aib]EGTFTSDVSYLK([AEEA-AEEA-γGlu-C20 diacid])ETAAQQRFLEHLV-NH2), for which the Selectivity in series [1] came to 35408. In addition, the EC50 in series [1] (setting [5]) is 0.0251 nM; in series [2] (setting [6]), 1000 nM. Besides, in series [3], the Fibril formation amounted to 22040. Besides, in series [4], the “Turbidity (pH 7)” value came to 0.08.

For the compound `CC(C)C[C@H](NC(=O)[C@H](Cc1ccccc1)NC(=O)[C@H](CCCNC(=N)N)NC(=O)[C@H](CCC(N)=O)NC(=O)[C@H](CO)NC(=O)[C@H](C)NC(=O)[C@H](C)NC(=O)C(C)(C)NC(=O)[C@H](CCC(=O)O)NC(=O)[C@H](CCCCNC(=O)COCCOCCNC(=O)COCCOCCNC(=O)CC[C@H](NC(=O)CCCCCCCCCCCCCCCCCCC(=O)O)C(=O)O)NC(=O)[C@H](CC(C)C)NC(=O)[C@H](CCCNC(=N)N)NC(=O)[C@H](CO)NC(=O)[C@@H](NC(=O)[C@H](CC(=O)O)NC(=O)[C@H](CO)NC(=O)[C@@H](NC(=O)[C@H](Cc1ccccc1)NC(=O)[C@@H](NC(=O)CNC(=O)[C@H](CCC(=O)O)NC(=O)C(C)(C)NC(=O)[C@@H](N)Cc1c[nH]cn1)[C@@H](C)O)[C@@H](C)O)C(C)C)C(=O)N[C@@H](CCC(=O)O)C(=O)N[C@@H](Cc1c[nH]cn1)C(=O)N[C@@H](CC(C)C)C(=O)N[C@H](C(N)=O)C(C)C` [compound 59] (H-H[Aib]EGTFTSDVSRLK([AEEA-AEEA-γGlu-C20 diacid])E[Aib]AASQRFLEHLV-NH2), the Selectivity in series [1] is 4314. Further, the figures for the EC50 in series [1] (setting [5]) and in series [2] (setting [6]) were 0.0316 nM and 126 nM, respectively. The Fibril formation in series [3] was 13939. In addition, in series [4], the “Turbidity (pH 7)” value was 0.09.

For `CC(C)C[C@H](NC(=O)[C@H](Cc1ccccc1)NC(=O)[C@H](CCCNC(=N)N)NC(=O)[C@H](CCC(N)=O)NC(=O)[C@H](C)NC(=O)[C@H](C)NC(=O)[C@H](C)NC(=O)[C@H](CCC(=O)O)NC(=O)[C@H](CCC(=O)O)NC(=O)[C@H](CCCCNC(=O)COCCOCCNC(=O)COCCOCCNC(=O)CC[C@H](NC(=O)CCCCCCCCCCCCCCCCCCC(=O)O)C(=O)O)NC(=O)[C@H](CC(C)C)NC(=O)[C@H](CCCNC(=N)N)NC(=O)[C@H](CO)NC(=O)[C@@H](NC(=O)[C@H](CC(=O)O)NC(=O)[C@H](CO)NC(=O)[C@@H](NC(=O)[C@H](Cc1ccccc1)NC(=O)[C@@H](NC(=O)CNC(=O)[C@H](CCC(=O)O)NC(=O)C(C)(C)NC(=O)[C@@H](N)Cc1c[nH]cn1)[C@@H](C)O)[C@@H](C)O)C(C)C)C(=O)N[C@@H](CCC(=O)O)C(=O)N[C@@H](Cc1c[nH]cn1)C(=O)N[C@@H](CC(C)C)C(=O)N[C@H](C(N)=O)C(C)C` [compound 60] (H-H[Aib]EGTFTSDVSRLK([AEEA-AEEA-γGlu-C20 diacid])EEAAAQRFLEHLV-NH2), the Selectivity in series [1] worked out at 9419. Besides, the values for the EC50 in series [1] (setting [5]) and in series [2] (setting [6]) were 0.0316 nM and 251 nM, respectively. This compound also came in with a Fibril formation in series [3] of 11873. Further, the “Turbidity (pH 7)” value in series [4] came to 0.09.

Consider `CC(C)C[C@H](NC(=O)[C@H](Cc1ccccc1)NC(=O)[C@H](CCCNC(=N)N)NC(=O)[C@H](CCC(N)=O)NC(=O)[C@H](C)NC(=O)[C@H](C)NC(=O)[C@H](C)NC(=O)[C@H](CCC(=O)O)NC(=O)[C@H](CCC(=O)O)NC(=O)[C@H](CCCCNC(=O)COCCOCCNC(=O)COCCOCCNC(=O)CC[C@H](NC(=O)CCCCCCCCCCCCCCCCCCC(=O)O)C(=O)O)NC(=O)[C@H](CC(C)C)NC(=O)[C@H](Cc1ccc(O)cc1)NC(=O)[C@H](CO)NC(=O)[C@@H](NC(=O)[C@H](CC(=O)O)NC(=O)[C@H](CO)NC(=O)[C@@H](NC(=O)[C@H](Cc1ccccc1)NC(=O)[C@@H](NC(=O)CNC(=O)[C@H](CCC(=O)O)NC(=O)C(C)(C)NC(=O)[C@@H](N)Cc1c[nH]cn1)[C@@H](C)O)[C@@H](C)O)C(C)C)C(=O)N[C@@H](CCC(=O)O)C(=O)N[C@@H](Cc1c[nH]cn1)C(=O)N[C@@H](CC(C)C)C(=O)N[C@H](C(N)=O)C(C)C` [compound 61] (H-H[Aib]EGTFTSDVSYLK([AEEA-AEEA-γGlu-C20 diacid])EEAAAQRFLEHLV-NH2), for which the Selectivity in series [1] turned out to be 66252. Further, the EC50 in series [1] (setting [5]) was 0.0126 nM; in series [2] (setting [6]), 794 nM. The Fibril formation in series [3] was 9138. For the same compound, in series [4], the “Turbidity (pH 7)” value is on record as 0.09.

`CC(C)C[C@H](NC(=O)[C@H](Cc1ccccc1)NC(=O)[C@H](CCCNC(=N)N)NC(=O)[C@H](CCC(N)=O)NC(=O)[C@H](C)NC(=O)[C@H](C)NC(=O)[C@H](C)NC(=O)[C@@H](NC(=O)[C@H](CCC(=O)O)NC(=O)[C@H](CCCCNC(=O)COCCOCCNC(=O)COCCOCCNC(=O)CC[C@H](NC(=O)CCCCCCCCCCCCCCCCCCC(=O)O)C(=O)O)NC(=O)[C@H](CC(C)C)NC(=O)[C@@H](NC(=O)[C@H](CO)NC(=O)[C@@H](NC(=O)[C@H](CC(=O)O)NC(=O)[C@H](CO)NC(=O)[C@@H](NC(=O)[C@H](Cc1ccccc1)NC(=O)[C@@H](NC(=O)CNC(=O)[C@H](CCC(=O)O)NC(=O)C(C)(C)NC(=O)[C@@H](N)Cc1c[nH]cn1)[C@@H](C)O)[C@@H](C)O)C(C)C)C(C)C)[C@@H](C)O)C(=O)N[C@@H](CCC(=O)O)C(=O)N[C@@H](Cc1c[nH]cn1)C(=O)N[C@@H](CC(C)C)C(=O)N[C@H](C(N)=O)C(C)C` [compound 62] (H-H[Aib]EGTFTSDVSVLK([AEEA-AEEA-γGlu-C20 diacid])ETAAAQRFLEHLV-NH2): in series [1], the EC50 came out at 0.1 nM and the Selectivity is recorded as 18608. In series [2], this compound showed an EC50 of 2000 nM. Moreover, the Fibril formation in series [3] is listed as 21979. For the same compound, the “Turbidity (pH 7)” value in series [4] stood at 0.08.

For `CC(C)C[C@H](NC(=O)[C@H](Cc1ccccc1)NC(=O)[C@H](CCCNC(=N)N)NC(=O)[C@H](CCC(N)=O)NC(=O)[C@H](C)NC(=O)[C@H](C)NC(=O)[C@H](C)NC(=O)[C@H](CCC(=O)O)NC(=O)[C@H](CCC(=O)O)NC(=O)[C@H](CCCCNC(=O)COCCOCCNC(=O)COCCOCCNC(=O)CC[C@H](NC(=O)CCCCCCCCCCCCCCCCCCC(=O)O)C(=O)O)NC(=O)[C@H](CC(C)C)NC(=O)[C@H](Cc1ccccc1)NC(=O)[C@H](CO)NC(=O)[C@@H](NC(=O)[C@H](CC(=O)O)NC(=O)[C@H](CO)NC(=O)[C@@H](NC(=O)[C@H](Cc1ccccc1)NC(=O)[C@@H](NC(=O)CNC(=O)[C@H](CCC(=O)O)NC(=O)C(C)(C)NC(=O)[C@@H](N)Cc1c[nH]cn1)[C@@H](C)O)[C@@H](C)O)C(C)C)C(=O)N[C@@H](CCC(=O)O)C(=O)N[C@@H](Cc1c[nH]cn1)C(=O)N[C@@H](CC(C)C)C(=O)N[C@H](C(N)=O)C(C)C` [compound 63] (H-H[Aib]EGTFTSDVSFLK([AEEA-AEEA-γGlu-C20 diacid])EEAAAQRFLEHLV-NH2), in series [1], the Selectivity amounted to 201002. Further, the EC50 in series [1] (setting [5]) was 0.0501 nM; in series [2] (setting [6]) it was 10000 nM. For the same compound, the Fibril formation in series [3] is 9044. Also, the “Turbidity (pH 7)” value in series [4] was 0.09.

With `CC(C)C[C@H](NC(=O)[C@H](Cc1ccccc1)NC(=O)[C@H](CCCNC(=N)N)NC(=O)[C@H](CCC(N)=O)NC(=O)C(C)(C)NC(=O)[C@H](C)NC(=O)[C@H](C)NC(=O)C(C)(C)NC(=O)[C@H](CCC(=O)O)NC(=O)[C@H](CCCCNC(=O)COCCOCCNC(=O)COCCOCCNC(=O)CC[C@H](NC(=O)CCCCCCCCCCCCCCCCCCC(=O)O)C(=O)O)NC(=O)[C@H](CC(C)C)NC(=O)[C@H](CCCNC(=N)N)NC(=O)[C@H](CO)NC(=O)[C@@H](NC(=O)[C@H](CC(=O)O)NC(=O)[C@H](CO)NC(=O)[C@@H](NC(=O)[C@H](Cc1ccccc1)NC(=O)[C@@H](NC(=O)CNC(=O)[C@H](CCC(=O)O)NC(=O)C(C)(C)NC(=O)[C@@H](N)Cc1c[nH]cn1)[C@@H](C)O)[C@@H](C)O)C(C)C)C(=O)N[C@@H](CCC(=O)O)C(=O)N[C@@H](Cc1c[nH]cn1)C(=O)N[C@@H](CC(C)C)C(=O)N[C@H](C(N)=O)C(C)C` [compound 64] (H-H[Aib]EGTFTSDVSRLK([AEEA-AEEA-γGlu-C20 diacid])E[Aib]AA[Aib]QRFLEHLV-NH2), the Selectivity in series [1] is 4808. Moreover, the EC50 is 0.0631 nM in series [1] (setting [5]) and 316 nM in series [2] (setting [6]). Also, the Fibril formation in series [3] turned out to be 14614. For the same compound, in series [4], the “Turbidity (pH 7)” value turned out to be 0.09.
